Assay results as given in PubChem BioAssay (NCI).
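Following 48 hours of exposure in 96-well plates, responses at five concentrations were used to interpolate endpoints linearly. Abbreviation: GI50, concentration required for 50% inhibition of growth. At the TGI there is no net growth.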

How the values were obtained:
Assay in all cases: NCI tumour cell line growth inhibition, 48 h
786-0 renal = tested on: 786-0 renal
ACHN renal = tested on: ACHN renal
NCI-H23 lung = tested on: NCI-H23 lung
NCI-H522 lung = tested on: NCI-H522 lung
NCI/ADR-RES ovarian = tested on: NCI/ADR-RES ovarian
OVCAR-5 ovarian = tested on: OVCAR-5 ovarian
SW-620 colon = tested on: SW-620 colon
T-47D breast = tested on: T-47D breast
U251 CNS = tested on: U251 CNS
UACC-62 melanoma = tested on: UACC-62 melanoma

Compound	GI50 (786-0 renal)	TGI (786-0 renal)	GI50 (ACHN renal)	TGI (ACHN renal)	GI50 (NCI-H23 lung)	TGI (NCI-H23 lung)	GI50 (NCI-H522 lung)	TGI (NCI-H522 lung)	GI50 (NCI/ADR-RES ovarian)	TGI (NCI/ADR-RES ovarian)	GI50 (OVCAR-5 ovarian)	TGI (OVCAR-5 ovarian)	GI50 (SW-620 colon)	TGI (SW-620 colon)	GI50 (T-47D breast)	TGI (T-47D breast)	GI50 (U251 CNS)	TGI (U251 CNS)	GI50 (UACC-62 melanoma)	TGI (UACC-62 melanoma)
CCC(C)(C)c1ccc(OCCCCCCN2CCNCC2)cc1	1.73 µM	3.23 µM	2.19 µM	5.45 µM	2.85 µM	8.36 µM	2.23 µM	5.67 µM	3.11 µM	8.95 µM	2.11 µM	5.39 µM	1.95 µM	3.97 µM	1.72 µM	3.78 µM	1.68 µM	3.45 µM	1.76 µM	3.52 µM
Nc1nc(SN=Nc2ccc(S(N)(=O)=O)cc2)c2[nH]cnc2n1	0.407 µM	> 100 µM	1.6 µM	> 100 µM	0.623 µM	> 100 µM	1.08 µM	43.1 µM	0.455 µM	> 100 µM	0.629 µM	> 100 µM	0.659 µM	> 100 µM	0.536 µM	> 100 µM	2.66 µM	> 100 µM	0.379 µM	5.62 µM
O=C(Nc1ccc(CO)cc1)c1coc2ccccc2c1=O	> 100 µM	> 100 µM	> 100 µM	> 100 µM	> 100 µM	> 100 µM	> 100 µM	> 100 µM	> 100 µM	> 100 µM	> 100 µM	> 100 µM	> 100 µM	> 100 µM	> 100 µM	> 100 µM	> 100 µM	> 100 µM	> 100 µM	> 100 µM
COc1ccc(OC)c2c(/C=C/c3ccc(N(C)C)cc3)ccnc12	–	> 10 µM	–	> 10 µM	–	> 10 µM	–	> 10 µM	–	> 10 µM	–	> 10 µM	–	> 10 µM	–	> 10 µM	–	> 10 µM	–	> 10 µM
C=CCSS/C=C/CS(=O)CC=C (stereo not drawn)	–	33.4 µM	–	> 100 µM	–	> 100 µM	–	32.3 µM	–	74.5 µM	–	98.8 µM	–	22.7 µM	–	> 100 µM	–	> 100 µM	–	> 82.7 µM
Cc1cc(N/N=C/c2nc(-c3ccc(Br)cc3)oc2C)c2cc(Br)ccc2n1	1.7 µM	3.42 µM	2.86 µM	8.05 µM	6.25 µM	22.8 µM	2.21 µM	5.62 µM	2.71 µM	9.03 µM	10.7 µM	22.5 µM	2.04 µM	4.81 µM	1.88 µM	3.9 µM	1.94 µM	3.75 µM	1.91 µM	4.58 µM
COc1cc2c(cc1O)C1Cc3ccc(OC)c(O)c3C(C2)N1C (stereo not drawn)	–	> 100 µM	–	> 100 µM	–	> 100 µM	–	> 100 µM	–	> 100 µM	–	> 100 µM	–	> 100 µM	–	> 100 µM	–	> 100 µM	–	> 100 µM
O=c1[nH]cnc2cccc(Cl)c12	–	> 100 µM	–	> 100 µM	–	> 100 µM	–	> 100 µM	–	> 100 µM	–	> 100 µM	–	> 100 µM	–	> 100 µM	–	> 100 µM	–	> 100 µM
CC(C)OC(=O)NNc1cc(Cl)ccc1Cl	–	> 100 µM	–	> 100 µM	–	> 100 µM	–	> 100 µM	–	> 100 µM	–	> 100 µM	–	> 100 µM	–	> 100 µM	–	> 100 µM	–	> 100 µM
CC(=O)/C=C/c1ccc(C#Cc2ccccc2)s1	12.5 µM	25 µM	16.3 µM	29.8 µM	14.4 µM	27.4 µM	12.7 µM	25.4 µM	15.8 µM	33.9 µM	15.9 µM	29.7 µM	19.4 µM	38.1 µM	11.4 µM	28.4 µM	16.8 µM	30.5 µM	17.5 µM	31.5 µM
NC(CS/C(Cl)=C/Cl)C(=O)O (stereo not drawn)	> 100 µM	> 100 µM	78.9 µM	> 100 µM	56.5 µM	> 100 µM	> 55.6 µM	> 100 µM	31.8 µM	> 100 µM	> 100 µM	> 100 µM	39.8 µM	> 100 µM	2.68 µM	15.2 µM	> 61 µM	> 100 µM	57 µM	> 100 µM
O=C(/C=C/c1cc(CN2CCOCC2)c(O)c2ncccc12)c1cc(CN2CCOCC2)c(O)c2ncccc12	0.0802 µM	> 32.6 µM	0.0329 µM	> 100 µM	0.0586 µM	> 100 µM	0.0208 µM	> 53.7 µM	0.091 µM	> 100 µM	0.0585 µM	> 100 µM	< 0.0186 µM	> 100 µM	0.0574 µM	2.48 µM	< 0.0172 µM	4.95 µM	0.0457 µM	–
CC(C)S(=O)(=O)c1ccccc1Nc1nc(Nc2cccc(NC(=O)CN)c2)ncc1Cl	0.235 µM	2.57 µM	0.124 µM	6.95 µM	0.208 µM	1.03 µM	1.33 µM	4.08 µM	0.482 µM	3.6 µM	0.183 µM	9.27 µM	0.0394 µM	4.09 µM	0.586 µM	4.68 µM	0.179 µM	2.86 µM	0.164 µM	1.83 µM
COc1cc2ncn(-c3cc(OCCc4ccccc4)c(C(N)=O)s3)c2cc1OC	> 25 µM	> 25 µM	> 25 µM	> 25 µM	> 25 µM	> 25 µM	> 18.1 µM	> 25 µM	14.8 µM	> 25 µM	> 25 µM	> 25 µM	> 25 µM	> 25 µM	> 25 µM	> 25 µM	> 25 µM	> 25 µM	> 25 µM	> 25 µM
Cc1c(C2=C(Br)C(=O)N(C)C2=O)c(=O)n(C)c(=O)n1C	–	32.1 µM	–	94.3 µM	–	42.9 µM	–	29.5 µM	–	74.1 µM	–	> 100 µM	–	> 100 µM	–	42.6 µM	–	> 100 µM	–	97.9 µM
COc1ccc(C(=O)COc2cccc(/C=C3\Oc4ccc5ccccc5c4C3=O)c2)cc1	2.22 µM	6.73 µM	15.2 µM	29 µM	3.38 µM	16.8 µM	1.46 µM	3.29 µM	16.7 µM	33.2 µM	12.7 µM	25.3 µM	1.87 µM	3.77 µM	1.98 µM	5.6 µM	6.42 µM	19.6 µM	10.7 µM	22.5 µM
CC(=O)O[C@H](C[C@H](C(C)C)N(C)C(=O)[C@@H](NC(=O)[C@H]1CCCCN1C)C(C)C)c1nc(C(=O)N[C@@H](Cc2ccccc2)C[C@H](C)C(=O)O)c(CCOCc2ccccc2)s1	< 0.001 µM	> 10 µM	0.00105 µM	> 10 µM	< 0.001 µM	> 10 µM	< 0.001 µM	< 0.001 µM	0.003 µM	0.0511 µM	< 0.001 µM	> 10 µM	< 0.001 µM	> 10 µM	< 0.001 µM	> 10 µM	< 0.001 µM	–	< 0.001 µM	> 10 µM
N#CC(=NCCO)C1=C(O)c2ccccc2C1=O	–	> 100 µM	–	> 100 µM	–	> 100 µM	–	> 100 µM	–	> 100 µM	–	> 100 µM	–	> 100 µM	–	> 100 µM	–	> 100 µM	–	> 100 µM
Cc1cn2c(/C=C3\C(=O)N(C)c4ccc(O)cc43)c(C)nc2s1	6.41 µM	> 100 µM	13.3 µM	> 100 µM	11.9 µM	> 100 µM	3.02 µM	13.7 µM	8.27 µM	> 100 µM	27.8 µM	> 100 µM	3.67 µM	> 100 µM	4.48 µM	64.5 µM	5.64 µM	> 100 µM	7.61 µM	> 100 µM
CCOC(=O)CNC(=O)c1ccccc1Nc1ccnc(C(F)(F)F)c1	52.6 µM	> 90 µM	> 58.2 µM	> 100 µM	31.5 µM	> 71.8 µM	27.8 µM	> 70.5 µM	> 71.5 µM	> 100 µM	> 51.1 µM	> 100 µM	29.9 µM	> 74.4 µM	41.9 µM	> 100 µM	34.3 µM	> 62.1 µM	22.4 µM	> 61.2 µM
COCCOc1cnc2ccn([C@H](C)c3nnc4c(F)cc(-c5cnn(C)c5)cn34)c(=O)c2c1	> 100 µM	> 100 µM	> 100 µM	> 100 µM	> 100 µM	> 100 µM	> 100 µM	> 100 µM	> 100 µM	> 100 µM	> 100 µM	> 100 µM	> 100 µM	> 100 µM	> 100 µM	> 100 µM	> 100 µM	> 100 µM	56.4 µM	> 100 µM
O=C(Nc1ccc(Br)cc1)c1ccc(Cl)c(Cl)c1	3.92 µM	> 100 µM	2.83 µM	> 28.6 µM	2.32 µM	7.32 µM	2.75 µM	16.2 µM	3.24 µM	> 100 µM	3.9 µM	> 100 µM	3.59 µM	> 100 µM	2 µM	> 27.9 µM	3.27 µM	> 100 µM	2.92 µM	> 100 µM
C=C1C(=O)O[C@H]2[C@H]1CC/C(COC(=O)c1ccc(Cl)nc1)=C\CC[C@@]1(C)O[C@@H]21	1.75 µM	3.53 µM	1.68 µM	3.6 µM	3.08 µM	12.4 µM	1.59 µM	3.82 µM	5.03 µM	23.9 µM	2.95 µM	9.4 µM	1.23 µM	2.96 µM	1.79 µM	5.3 µM	4.85 µM	15.9 µM	1.63 µM	3.74 µM
O=[N+]([O-])c1ccc2c(c1)C(c1ccccc1Cl)=Nc1cn[nH]c1N2	11.8 µM	> 25 µM	14.4 µM	> 25 µM	> 25 µM	> 25 µM	15.5 µM	> 25 µM	23.1 µM	> 25 µM	> 25 µM	> 25 µM	15.8 µM	> 25 µM	14 µM	> 25 µM	9.91 µM	> 25 µM	16 µM	> 25 µM
COc1cccc(/C(COc2ccc3c(c2)oc(=O)c2cc(OC)ccc23)=N/O)c1	9.66 µM	> 100 µM	3.64 µM	> 100 µM	33.4 µM	> 100 µM	3.12 µM	9.47 µM	3.63 µM	> 100 µM	> 100 µM	> 100 µM	3.9 µM	> 100 µM	4.85 µM	> 100 µM	4.35 µM	> 100 µM	4.25 µM	> 100 µM
Cc1cc[c-]cc1.Fc1c[c-]c(-c2ccccn2)c(F)c1.[Pt+2].c1ccc(P(C[PH+](c2ccccc2)c2ccccc2)c2ccccc2)cc1	2.92 µM	10.1 µM	2.89 µM	9.84 µM	2.21 µM	8.67 µM	2.12 µM	8.27 µM	13.9 µM	48.2 µM	2.99 µM	11.9 µM	2.83 µM	12.4 µM	2.34 µM	9.47 µM	2.32 µM	12.2 µM	2.04 µM	9.31 µM
NC(N)=NCCCCCNc1noc(Cc2c[nH]c3cc(Br)ccc23)n1	23 µM	86.3 µM	39.9 µM	> 100 µM	8.2 µM	28.7 µM	13.6 µM	46.5 µM	40.4 µM	> 100 µM	24.9 µM	> 100 µM	20 µM	> 100 µM	6.04 µM	32.3 µM	2.78 µM	14.9 µM	7.48 µM	28.1 µM
